# In a melting point compilation (Tetko et al.; mined from patent text by program, amines drawn as free bases though some values may be those of a salt):
row,melting point,SMILES
1,292 to 293 °C,Cc1c2c(c(-c3ccc4c(c3)OCO4)c3c4c(ccc13)OCO4)CNC2=O
2,115 to 120 °C,COc1ccccc1N1CCN(C[C@@H](C)N(C(=O)c2ccccc2)C(=O)c2ccccc2)CC1
3,113 to 114 °C,O=C1CCN(Cc2ccc3c(c2)OCO3)CC1C(c1ccccc1)c1ccccc1 (configuration not stated)
4,179 to 181 °C,Cc1cn2nc(SCc3ccccc3)nc2nc1Cl
5,105 to 106 °C,Cc1ccccc1CNCCc1ccc(NC(=N)c2cccs2)cc1
6,99 to 101 °C,c1ccc(CCCCNCCOc2cccc3[nH]ccc23)cc1
7,195 to 197 °C,CCOC(=O)[C@H](C)N[P@@]1(=O)OC[C@H]2O[C@@H](n3cnc4c(OCC)nc(N)nc43)[C@](C)(F)[C@@H]2O1
8,212 to 214 °C,CCc1nc2c(cnn2CC)c(NC2CCOCC2)c1CNC(=O)c1cc(C)cc(C(=O)NCc2ccc(Cl)c(Br)c2)c1
9,134 °C,COc1ccccc1CNc1ccc2cc(Nc3ccccn3)ccc2n1
10,131 to 134 °C,CCCc1c(CSc2nnc(SCc3ccc(OCC(=O)O)cc3)s2)ccc(C(C)=O)c1O
11,145 to 146 °C,CC(C)C[C@H](N[C@H](CC(C)C)C(=O)OCc1ccccc1)C(=O)N[C@@H](Cc1ccccc1)C(N)=O
12,178 to 180 °C,COc1ccc2c(-c3ccc(C#Cc4ccccc4)cc3)cc(=O)oc2c1
13,93.6 °C,CCOc1cc(C(F)(F)F)sc1C(=O)OC
14,214 to 216 °C,CCCOc1ccccc1-c1nc2nc(NCC(F)(F)F)ncc2c(=O)[nH]1
15,> 240 °C,Cc1cc(Cn2cc(C3c4ccccc4C=Cc4ccccc43)c(=S)[nH]c2=O)cc(C(=O)O)c1

# Second part, the compound before the results:
row,SMILES,melting point
1,O=c1[nH]c2ccc([N+](=O)[O-])cc2c(=O)n1CCCN1CC=C(c2ccc(Cl)cc2)CC1,205 to 207 °C
2,O=C1c2ccccc2C(Nc2ccccc2)N1CCCN1CC=C(c2ccccc2)CC1 (configuration not stated),119 °C
3,Nc1ccccc1C(=O)OCN1C(=O)c2ccccc2C1=O,160 to 162 °C
4,Cn1ncnc1-c1cc(S(C)=O)c2[nH]c(=O)ccc2c1 (configuration not stated),224 to 227 °C
5,CCc1cc(C(=O)c2ccccc2Cl)c(-n2c(Cl)nnc2CNC(=O)c2cc3ccccc3[nH]2)s1,254 to 256 °C
6,CC1(NC(=O)C(F)(F)F)CN(c2cc3c(cc2F)c(=O)c(C(=O)O)cn3-c2ccc(F)cc2)C1,146 to 151 °C
7,Cn1c(-c2ccc(F)cc2)cc(=O)c(C(=O)O)c1-c1ccc(F)cc1,191 to 193 °C
8,CC1(C)CCCC(C)(C)N1Cc1ccc2cc(NC(=O)N3CCC(c4ccc(Cl)cc4)CC3)ccc2n1,203 to 204 °C
9,CCCCCCCCCCCNC(=O)N(C)CC(O)C(O)C(O)C(O)CO (configuration not stated),109 °C
10,COc1ccccc1-c1ccc(C[C@H](NC(=O)c2c(Cl)cccc2Cl)C(=O)O)cc1C(C)=O,87 to 89 °C
11,CCCCOc1c(CO)n(CC(C)(C)C)c(=O)c2ccc(OCC)cc12,92.5 to 93 °C
12,CCc1cc(C(=O)O)c(S(N)(=O)=O)o1,186 °C
13,O=c1c2ccccc2nc(CCl)n1-c1ccccc1Cl,195 to 196 °C
14,COc1cc(C(=O)O)c(-c2c(C(=O)O)ccc3c2OCO3)cc1OC,207 to 210 °C
15,O=C(CCOc1cccc(CN2CCCCC2)c1)Nc1cccnc1,92 to 96 °C
16,O=C(O)C1C2CCC(C2)C1NS(=O)(=O)c1ccccc1 (configuration not stated),157 to 159 °C
17,COc1ccc(OCCCCCc2cc(C)on2)c(Cl)c1,45 to 47 °C
18,CC(C)c1nc(Sc2ccc(CCC(=O)O)cc2)c(C(=O)O)n1Cc1cc2c(cc1Cl)OCO2,198 °C
19,CON(c1ccc([N+](=O)[O-])cc1Cl)S(=O)(=O)c1ccc(Cl)c([N+](=O)[O-])c1,138 to 139 °C
20,CC(C)(O)c1cc(Br)ccc1N,62 to 63 °C
21,COc1ccc(C(=O)O)c(Oc2ccc(C(F)(F)F)cc2NS(=O)(=O)c2cc(C(F)(F)F)cc(C(F)(F)F)c2)c1,182 °C
22,O=[N+]([O-])c1ccc(N(CCO)CCO)cc1,102 to 104 °C
